{"source": "patent US20160303177A1", "about": "“NUTRITIONAL SUPPLEMENT” (priority 2015, published 2016)", "origin": "cited, not measured here", "key": {"[1]": {"settings": "600 mg prior to exercise"}, "[2]": {"settings": "400 mg at three times per day"}, "[3]": {"settings": "washout period"}, "[4]": {"settings": "training in set of 8-15 repetitions"}, "[5]": {"settings": "300 mg per day"}, "[6]": {"settings": "17.25 grams per day, cyclists"}, "[7]": {"settings": "5 grams at three times a day along with other medications"}, "[8]": {"settings": "given before animals were cardiac stressed"}, "[9]": {"settings": "300 mgs of EGCG"}, "[10]": {"settings": "two grams of L-Carnitine with 80 mg of carbohydrates"}, "[11]": {"settings": "8 grams of L-Citrulline with 10 grams of carbohydrate"}, "[12]": {"settings": "6 grams"}, "[13]": {"settings": "diseased hearts, 3 grams a day"}, "[14]": {"settings": "1500 mg per day for 6 weeks, mild to moderate erectile dysfunction"}, "[15]": {"settings": "500 milligrams of nitrate, runners"}, "[16]": {"settings": "healthy individuals"}, "[17]": {"settings": "11.2 mmol/kg of nitrate"}}}
{"smiles": "C[N+](C)(C)CCOP(=O)([O-])OC[C@H](O)CO", "note": "[Alpha GPC, Alpha Glycerylphosphorylcholine]", "values": [{"measurement": "peak increase in peak force production during resistance exercise", "setting": "[1]", "value": 14, "unit": "%"}, {"measurement": "cognition in mild to moderate Alzheimer's dementia", "setting": "[2]", "value": "cognitive improvement"}]}
{"smiles": "NCCC(=O)O", "note": "[Beta-Alanine]", "values": [{"measurement": "time after supplementation still in the muscles at higher levels", "setting": "[3]", "value": 8, "unit": "weeks"}, {"measurement": "additional reps in the gym", "setting": "[4]", "value": "one to two additional reps"}]}
{"smiles": "COC1=C(OC)C(=O)C(C/C=C(\\C)CC/C=C(\\C)CC/C=C(\\C)CC/C=C(\\C)CC/C=C(\\C)CC/C=C(\\C)CC/C=C(\\C)CC/C=C(\\C)CC/C=C(\\C)CCC=C(C)C)=C(C)C1=O", "note": "[CoQ 10, Coenzyme Q10]", "values": [{"measurement": "half-life", "setting": "in vivo", "value": "5.8 to 8.10", "unit": "h"}, {"measurement": "increase in CoQ10 concentrations", "setting": "supplementation with 90-120 mg", "value": "50-150%"}, {"measurement": "fatigue during exertion", "setting": "[5]", "value": "reduce fatigue during the late portions of exertion"}]}
{"smiles": "O=C[C@H](O)[C@H](O)[C@H](O)CO", "note": "[D-Ribose]", "values": [{"measurement": "rates of ATP production", "setting": "[6]", "value": "increased the rates of ATP production back to pre-exercise levels"}, {"measurement": "fibromyalgia symptoms", "setting": "[7]", "value": "marked decrease in symptoms"}, {"measurement": "held out longer before ischemia compared to placebo", "setting": "[8]", "value": 25, "unit": "%"}]}
{"smiles": "O=C(O[C@@H]1Cc2c(O)cc(O)cc2O[C@@H]1c1cc(O)c(O)c(O)c1)c1cc(O)c(O)c(O)c1", "note": "[EGCG, epigallocatechin gallate]", "values": [{"measurement": "source of energy when taken with a meal", "setting": "[9]", "value": "a greater proportion of energy comes from dietary fat rather than carbohydrate"}]}
{"smiles": "C[N+](C)(C)C[C@H](O)CC(=O)[O-]", "note": "[L-Carnitine]", "values": [{"measurement": "fat burning", "setting": "[10]", "value": "increased fat burning"}, {"measurement": "increase in muscle carnitine content", "setting": "[10]", "value": 21, "unit": "%"}]}
{"smiles": "NC(=O)NCCC[C@H](N)C(=O)O", "note": "[L-Citrulline]", "values": [{"measurement": "delay in fatigue", "setting": "[11]", "value": "statistically significant delay in fatigue"}, {"measurement": "ATP production", "setting": "[12]", "value": "increased ATP production"}, {"measurement": "ammonia production", "setting": "[12]", "value": "reduced ammonia production"}, {"measurement": "muscle protein synthesis", "setting": "[12]", "value": "increased muscle protein synthesis"}, {"measurement": "reduction of creatine depletion", "setting": "[12]", "value": 28, "unit": "%"}, {"measurement": "blood pressure", "setting": "[13]", "value": "decrease in blood pressure"}, {"measurement": "exercise abilities", "setting": "[13]", "value": "increase in exercise abilities"}, {"measurement": "right ventricular ejection fraction", "setting": "[13]", "value": "increase in right ventricular ejection fraction"}, {"measurement": "men with increase in erection hardness", "setting": "[14]", "value": 50, "unit": "%"}]}
{"smiles": "O=[N+]([O-])O", "note": "[nitrate]", "values": [{"measurement": "improvement of 5K time", "setting": "[15]", "value": 41, "unit": "s"}, {"measurement": "reduced VO2 (oxygen consumption)", "setting": "[16]; 0.1 mmol/kg of nitrate", "value": 5.4, "unit": "%"}, {"measurement": "increase in time to fatigue", "setting": "[16]; 6.2 mmol/kg of nitrate", "value": 15, "unit": "%"}, {"measurement": "increase in energy efficiency", "setting": "[16]", "value": 7.1, "unit": "%"}, {"measurement": "reduction of oxygen muscle extraction", "setting": "[17]", "value": 19, "unit": "%"}]}
